Data taken from ChEMBL document CHEMBL1149946, “The conformation of cyclosporin a bound to cyclophilin is altered (once again) following binding to calcineurin: an analysis of receptor-ligand-receptor interactions” (Bioorg Med Chem Lett, 1992).

Experiment: Compound was evaluated for its binding affinity towards cyclophilin (Cyp)

Kd [µM]	Structure (SMILES)
0.5	C/C=C/CC(C)(C)[C@@H](O)[C@H]1C(=O)N[C@@H](CC)C(=O)N(C)CC(=O)N(C)[C@@H](CC(C)C)C(=O)N[C@@H](C(C)C)C(=O)N(C)[C@@H](CC(C)C)C(=O)N[C@@H](C)C(=O)N[C@@H](C)C(=O)N(C)[C@@H](CC(C)C)C(=O)N(C)[C@@H](CC(C)C)C(=O)N(C)[C@@H](C(C)C)C(=O)N1C
0.013	C/C=C/C[C@@H](C)[C@H](O)[C@H]1C(=O)N[C@@H](CC)C(=O)N(C)CC(=O)N(C)[C@@H](CC(C)C)C(=O)N[C@H](C(C)C)C(=O)N(C)CC(=O)N[C@@H](C)C(=O)N[C@H](C)C(=O)N(C)[C@H](CC(C)C)C(=O)N(C)[C@H](CC(C)C)C(=O)N(C)[C@H](C(C)C)C(=O)N1C
